# In ChEMBL document CHEMBL1156493, “Histone deacetylase inhibitors suppress TF-kappaB-dependent agonist-driven tissue factor expression in endothelial cells and monocytes” (J Biol Chem, 2007):
# Active and inactive are the calls of the source. The calls are words filed in the database; no cut-off is given here.
# Experiments:
# [1] = molecular target: Tissue factor (Homo sapiens) (UniProt P13726); assay: Inhibition of TNF-alpha-induced tissue factor activity in HUVEC at 6 uM preincubated for 4 hrs assessed after 4 hrs of TNFalpha challenge by one stage clotting assay; assay type: cell-based
# [2] = molecular target: Tissue factor (Homo sapiens) (UniProt P13726); assay: Inhibition of LPS-induced tissue factor activity in HUVEC at 6 uM preincubated for 4 hrs assessed after 4 hrs of LPS challenge by one stage clotting assay; assay type: cell-based
# [3] = molecular target: Tissue factor (Homo sapiens) (UniProt P13726); settings: HUVEC, 3 uM
# Description: Inhibition of TNF-alpha-induced tissue factor activity in HUVEC at 3 uM preincubated for 4 hrs assessed after 4 hrs of TNFalpha challenge by one stage clotting assay
# [4] = molecular target: Tissue factor (Homo sapiens) (UniProt P13726); settings: HUVEC, 1 uM
# Description: Inhibition of LPS-induced tissue factor activity in HUVEC at 1 uM preincubated for 4 hrs assessed after 4 hrs of LPS challenge by one stage clotting assay
# [5] = system: HUVEC; assay: Effect on TNF-alpha-induced TFkappaB activation assessed as p65/p50 binding to TFkappaB in HUVEC preincubated for 4 hrs measured after 0.5 hrs of TNFalpha challenge by electrophoretic shift mobility assay; assay type: cell-based; settings: Homo sapiens
# [6] = system: HUVEC; assay: Induction of PMA-induced wild type TFkappaB-dependent tissue factor promoter expression in HUVEC at 100 nM preincubated for 4 hrs assessed after 6 hrs of PMA challenge by luciferase reporter assay; assay type: cell-based; settings: Homo sapiens
# [7] = molecular target: T1, Tissue factor (Mus musculus) (UniProt P20352); assay: Inhibition of baseline tissue factor activity in non-stimulated C57BL/6J mouse macrophages after 4 hrs by one stage clotting assay; settings: concentration not given here
# T1 sequence (whole entry): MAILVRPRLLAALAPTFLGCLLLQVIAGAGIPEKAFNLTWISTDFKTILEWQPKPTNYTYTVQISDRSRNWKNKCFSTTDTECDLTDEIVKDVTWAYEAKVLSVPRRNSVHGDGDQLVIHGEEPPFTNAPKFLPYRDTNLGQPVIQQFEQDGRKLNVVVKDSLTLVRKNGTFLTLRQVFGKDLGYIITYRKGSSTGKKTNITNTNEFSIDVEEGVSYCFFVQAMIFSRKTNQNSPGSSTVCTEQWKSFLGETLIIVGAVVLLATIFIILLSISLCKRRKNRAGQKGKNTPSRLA
# [8] = system: HUVEC; assay: Effect on TNF-alpha-induced SP1 protein level in HUVEC preincubated for 4 hrs assessed after 0.5 hrs of TNFalpha challenge by Western blotting; assay type: functional, cell-based; settings: Homo sapiens
# [9] = molecular target: T1, Tissue factor (Mus musculus); assay: Inhibition of TNF-alpha-induced tissue factor activity in C57BL/6J mouse macrophages preincubated for 4 hrs assessed after 5 hrs of TNFalpha challenge by one stage clotting assay; settings: concentration not given here
# [10] = system: HUVEC; assay: Inhibition of HOSCN-induced tissue factor protein expression in HUVEC preincubated for 4 hrs assessed after 4 hrs of HOSCN challenge by Western blotting; assay type: functional, cell-based; settings: Homo sapiens
# [11] = molecular target: Tissue factor (Homo sapiens) (UniProt P13726); assay: Inhibition of TNF-alpha-induced tissue factor activity in HUVEC at 1 uM preincubated for 4 hrs assessed after 4 hrs of TNFalpha challenge by one stage clotting assay; assay type: cell-based
# [12] = system: HUVEC; assay: Inhibition of TNFalpha induced wild type TFkappaB-dependent tissue factor promoter expression in HUVEC preincubated for 4 hrs assessed after 6 hrs of TNFalpha challenge by luciferase reporter assay; assay type: cell-based; settings: Homo sapiens
# [13] = system: HUVEC; assay: Effect on TNF-alpha-induced NF-kappaB activation in HUVEC preincubated for 4 hrs assessed as increase in p65 level after 0.5 hrs of TNFalpha challenge by electrophoretic shift mobility assay; assay type: cell-based; settings: Homo sapiens
# [14] = system: HUVEC; assay: Reduction of ICAM1 mRNA level in TNF-alpha-stimulated HUVEC at 1 uM preincubated for 4 hrs assessed after 1 to 2 hrs of TNFalpha challenge by RT-PCR; assay type: functional, cell-based; settings: Homo sapiens
# [15] = system: Mus musculus; assay: Decrease in thioglycolate-induced tissue factor activity in C57BL/6J mouse macrophage at 1 mg/kg, ip preincubated for 4 hrs assessed after 5 hrs of thioglycolate challenge by one stage clotting assay; assay type: functional; parameters: scale not given: the % may be the effect or the level left; settings: route intraperitoneal
# [16] = system: HUVEC; assay: Inhibition of TNF-alpha-induced p65 binding to ICAM1 NF-kappaB in HUVEC preincubated for 4 hrs assessed after 0.5 hrs of TNFalpha challenge by chromatin immunoprecipitation assay; assay type: cell-based; settings: Homo sapiens
# [17] = system: HUVEC; assay: Effect on TNF-alpha-induced NF-kappaB activation in HUVEC preincubated for 4 hrs assessed as increase in c-Rel level after 0.5 hrs of TNFalpha challenge by electrophoretic shift mobility assay; assay type: cell-based; settings: Homo sapiens
# [18] = system: HUVEC; assay: Increase in acetylated histone H3 level in HUVEC preincubated for 4 hrs assessed after 0.5 hrs of TNFalpha challenge by Western blot; assay type: functional, cell-based; settings: Homo sapiens
# [19] = system: HUVEC; assay: Effect on TNF-alpha-induced NF-kappaB activation assessed as p65/p50 binding to NF-kappaB in HUVEC at 0.3 uM preincubated for 4 hrs measured after 0.5 hrs of TNFalpha challenge by electrophoretic shift mobility assay; assay type: cell-based; settings: Homo sapiens
# [20] = molecular target: Tissue factor (Homo sapiens) (UniProt P13726); assay: Inhibition of LPS-induced tissue factor activity in HUVEC at 0.3 uM preincubated for 4 hrs assessed after 4 hrs of LPS challenge by one stage clotting assay
# [21] = system: HUVEC; assay: Inhibition of IL-1-beta-induced tissue factor protein expression in HUVEC preincubated for 4 hrs assessed after 4 hrs of IL1-beta challenge by Western blotting; assay type: functional, cell-based; settings: Homo sapiens
# [22] = system: HUVEC; assay: Effect on TNF-alpha-induced NF-kappaB activation assessed as p65/p50 binding to NF-kappaB in HUVEC at 1 uM preincubated for 4 hrs measured after 0.5 hrs of TNFalpha challenge by electrophoretic shift mobility assay; assay type: cell-based; settings: Homo sapiens
# [23] = system: HUVEC; assay: Effect on TNF-alpha-induced NF-kappaB activation in HUVEC preincubated for 4 hrs assessed as increase in p50 level after 0.5 hrs of TNFalpha challenge by electrophoretic shift mobility assay; assay type: cell-based; settings: Homo sapiens
# [24] = system: HUVEC; assay: Increase in acetylated histone H4 level in HUVEC preincubated for 4 hrs assessed after 0.5 hrs of TNFalpha challenge by Western blot; assay type: functional, cell-based; settings: Homo sapiens
# [25] = system: HUVEC; assay: Reduction of tissue factor mRNA level in TNF-alpha-stimulated HUVEC at 1 uM preincubated for 4 hrs assessed after 1 to 2 hrs of TNFalpha challenge by RT-PCR; assay type: functional, cell-based; settings: Homo sapiens
# [26] = system: HUVEC; assay: Induction of PMA-induced wild type NF-kappaB-dependent ICAM promoter expression in HUVEC preincubated for 4 hrs assessed after 6 hrs of PMA challenge by luciferase reporter assay relative to control; assay type: cell-based; settings: Homo sapiens
# [27] = molecular target: T1, Tissue factor (Mus musculus); assay: Inhibition of LPS-induced tissue factor activity in C57BL/6J mouse macrophages preincubated for 4 hrs assessed after 5 hrs of LPS challenge by one stage clotting assay; settings: concentration not given here
# [28] = system: HUVEC; assay: Effect on TNF-alpha-induced TFkappaB activation assessed as p65/c-Rel binding to TFkappaB in HUVEC preincubated for 4 hrs measured after 0.5 hrs of TNFalpha challenge by electrophoretic shift mobility assay; assay type: cell-based; settings: Homo sapiens
# [29] = system: HUVEC; assay: Inhibition of LPS-induced tissue factor protein expression in HUVEC preincubated for 4 hrs assessed after 4 hrs of LPS challenge by Western blotting; assay type: functional, cell-based; settings: Homo sapiens
# [30] = system: HUVEC; assay: Inhibition of LPS-induced wild type TFkappaB-dependent tissue factor promoter expression in HUVEC preincubated for 4 hrs assessed after 6 hrs of LPS challenge by luciferase reporter assay; assay type: cell-based; settings: Homo sapiens
# [31] = system: HUVEC; assay: Inhibition of TNF-alpha-induced p65 binding to TFkappaB in HUVEC preincubated for 4 hrs assessed after 0.5 hrs of TNFalpha challenge by chromatin immunoprecipitation assay; assay type: cell-based; settings: Homo sapiens
# [32] = molecular target: T1, Tissue factor (Mus musculus); assay: Inhibition of IL-1-beta-induced tissue factor activity in C57BL/6J mouse macrophages preincubated for 4 hrs assessed after 5 hrs of IL1-beta challenge by one stage clotting assay; settings: concentration not given here
# [33] = system: HUVEC; assay: Effect on LPS-induced wild type NF-kappaB-dependent ICAM1 promoter expression in HUVEC preincubated for 4 hrs assessed after 6 hrs of LPS challenge by luciferase reporter assay; assay type: cell-based; settings: Homo sapiens
# [34] = system: HUVEC; assay: Inhibition of TNF-alpha-induced tissue factor protein expression in HUVEC preincubated for 4 hrs assessed after 4 hrs of TNFalpha challenge by Western blotting; assay type: functional, cell-based; settings: Homo sapiens
# [35] = system: HUVEC; assay: Effect on TNF-alpha-induced IkappaB degradation in HUVEC at 1 uM preincubated for 4 hrs assessed after 60 mins of TNFalpha challenge by Western blotting; assay type: functional, cell-based; settings: Homo sapiens
# [36] = system: HUVEC; assay: Effect on TNF-alpha-induced Egr1 protein level in HUVEC preincubated for 4 hrs assessed after 0.5 hrs of TNFalpha challenge by Western blotting; assay type: functional, cell-based; settings: Homo sapiens
# [37] = system: HUVEC; assay: Effect on TNF-alpha-induced wild type NF-kappaB-dependent ICAM1 promoter expression in HUVEC preincubated for 4 hrs assessed after 6 hrs of TNFalpha challenge by luciferase reporter assay; assay type: cell-based; settings: Homo sapiens
# [38] = molecular target: Tissue factor (Homo sapiens) (UniProt P13726); assay: Inhibition of LPS-induced tissue factor activity in HUVEC at 10 uM preincubated for 4 hrs assessed after 4 hrs of LPS challenge by one stage clotting assay; assay type: cell-based
# [39] = molecular target: Tissue factor (Homo sapiens) (UniProt P13726); assay: Inhibition of TNF-alpha-induced tissue factor activity in HUVEC at 10 uM preincubated for 4 hrs assessed after 4 hrs of TNFalpha challenge by one stage clotting assay; assay type: cell-based
# [40] = molecular target: Tissue factor (Homo sapiens) (UniProt P13726); assay: Inhibition of LPS-induced tissue factor activity in HUVEC at 30 uM preincubated for 4 hrs assessed after 4 hrs of LPS challenge by one stage clotting assay; assay type: cell-based
# [41] = molecular target: Tissue factor (Homo sapiens) (UniProt P13726); assay: Inhibition of TNF-alpha-induced tissue factor activity in HUVEC at 30 uM preincubated for 4 hrs assessed after 4 hrs of TNFalpha challenge by one stage clotting assay
# Chain of Tissue factor (Homo sapiens) (P13726 whole entry): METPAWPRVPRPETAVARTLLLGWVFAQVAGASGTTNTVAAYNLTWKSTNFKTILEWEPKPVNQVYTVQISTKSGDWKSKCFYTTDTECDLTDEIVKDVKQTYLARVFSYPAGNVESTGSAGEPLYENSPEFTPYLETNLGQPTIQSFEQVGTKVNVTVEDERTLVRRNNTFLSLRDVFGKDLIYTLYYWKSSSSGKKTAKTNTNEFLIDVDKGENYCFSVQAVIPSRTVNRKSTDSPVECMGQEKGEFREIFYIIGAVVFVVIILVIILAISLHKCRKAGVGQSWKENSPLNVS
smiles,measurement,setting,value
CCCC(CCC)C(=O)O,inhibition,[1],81%
same,inhibition,[2],93%
"CCC(=O)CCCCC[C@@H]1NC(=O)[C@H]2CCCCN2C(=O)[C@H](C(C)CC)NC(=O)[C@H](Cc2cn(OC)c3ccccc23)NC1=O (single isomer, unassigned)",inhibition,[3],85%
same,inhibition,[4],80%
CC(/C=C/C(=O)NO)=C\[C@@H](C)C(=O)c1ccc(N(C)C)cc1 [TRICHOSTATIN],Activity,[5],Active
same,Activity,[6],75%
same,inhibition,[7],60%
same,Activity,[8],inactive
same,inhibition,[9],60%
same,Activity,[10],Active
same,inhibition,[11],95%
same,Activity,[12],Active
same,Activity,[13],inactive
same,Activity,[14],inactive
same,Activity,[15],50%
same,Activity,[16],inactive
same,Activity,[17],inactive
same,Activity,[18],Active
same,Activity,[19],inactive
same,inhibition,[20],91%
same,Activity,[21],Active
same,Activity,[22],inactive
same,Activity,[23],inactive
same,Activity,[24],Active
same,Activity,[25],Active
same,Activity,[26],inactive
same,inhibition,[27],60%
same,Activity,[28],Active
same,Activity,[29],Active
same,Activity,[30],Active
same,Activity,[31],Active
same,inhibition,[32],60%
same,Activity,[33],inactive
same,Activity,[34],Active
same,Activity,[35],inactive
same,Activity,[36],inactive
same,Activity,[37],inactive
CCCC(=O)[O-].[Na+],inhibition,[38],95%
same,inhibition,[39],90%
Nc1ccccc1NC(=O)c1ccc(CNC(=O)OCc2cccnc2)cc1,inhibition,[40],92%
same,inhibition,[41],85%
